pKd, pKi: −log10 of the molar value. Starred links: 1 amine or outer side, 2 acyl side, 3 side chain; linkers in the order of their positions; H or OH if unused. Positions of bridges follow the written chain, without caps; N, C: chain ends. Non-standard residues stand in square brackets, D forms with d. Residues, ends and D or L forms follow the SMILES beside them. X1 = O=C([C@H](CCC/C=C/[*:3])N[*:1])[*:2]; S5 = C=CCCC[C@](C)(N)C(=O)O
Columns and labels:
[1] = target: T1, Estrogen receptor (Homo sapiens) (UniProt P03372); experiment: (§1) Binding affinity to recombinant human ERalpha LBD (301 to 553 residues) expressed in Escherichia coli BL21(DE3) by surface plasmon resonance method
T1 sequence (whole entry): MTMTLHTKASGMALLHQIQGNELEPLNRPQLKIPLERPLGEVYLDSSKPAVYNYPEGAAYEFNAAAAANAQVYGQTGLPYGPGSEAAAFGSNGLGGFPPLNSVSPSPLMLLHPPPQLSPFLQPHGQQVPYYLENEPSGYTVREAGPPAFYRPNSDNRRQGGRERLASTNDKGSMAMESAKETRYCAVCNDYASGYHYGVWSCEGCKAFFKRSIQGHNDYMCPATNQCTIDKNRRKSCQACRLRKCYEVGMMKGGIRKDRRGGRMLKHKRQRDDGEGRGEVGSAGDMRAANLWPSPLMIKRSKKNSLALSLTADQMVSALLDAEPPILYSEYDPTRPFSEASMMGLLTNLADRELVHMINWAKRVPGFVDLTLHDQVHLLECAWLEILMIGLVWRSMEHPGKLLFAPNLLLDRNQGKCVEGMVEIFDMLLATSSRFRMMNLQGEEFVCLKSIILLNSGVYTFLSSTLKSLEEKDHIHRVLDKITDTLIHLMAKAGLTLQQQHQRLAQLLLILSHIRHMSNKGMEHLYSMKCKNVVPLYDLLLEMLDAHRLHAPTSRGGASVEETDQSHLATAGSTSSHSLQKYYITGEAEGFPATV

[2] = target: T2, Estrogen receptor (Homo sapiens, UniProt P03372); experiment: as §1
T2 sequence (P03372 whole entry): T1 sequence (whole entry)

[3] = test system: Estrogen receptor beta (Homo sapiens), Q92731 [C334S,C369S,C481S]; experiment: (§2) Binding affinity to recombinant human ERbeta LBD (259 to 498 residues) C334S/C369S/C481S triple mutant expressed in Escherichia coli BL21(DE3) by surface plasmon resonance method
[4] = target: T3, Estrogen receptor beta (Homo sapiens, UniProt Q92731, C334S/C369S/C481S); experiment: as §2
[5] = target: T2, Estrogen receptor; experiment: Binding affinity to recombinant N-terminal His6-tagged ERalpha LBD (unknown origin) (299 to 554 residues) by surface plasmon resonance method
[6] = target: T2, Estrogen receptor; experiment: Displacement of THC-ketone from human ERalpha LBD (304 to 554 residues) expressed in Escherichia coli BL21(DE3) after 1 hr by fluorescence assay
[7] = target: T2, Estrogen receptor; experiment: Displacement of FAM-LTERHKILHRLLQEGSPSD from ERalpha (unknown origin) (302 to 552 residues) expressed in Escherichia coli rosetta (DE3) after 1 hr by fluorescence polarization assay
[8] = target: Estrogen receptor beta (Homo sapiens, UniProt Q92731); experiment: Displacement of FAM-LTERHKILHRLLQEGSPSD from ERbeta (unknown origin) (260 to 502 residues) expressed in Escherichia coli rosetta (DE3) after 1 hr by fluorescence polarization assay
[9] = target: T2, Estrogen receptor; experiment: Binding affinity to recombinant human ERalpha LBD (301 to 553 residues) expressed in Escherichia coli BL21(DE3) using FAM-labelled compound after 1 hr by fluorescence polarization method
[10] = target: T3, Estrogen receptor beta; experiment: Binding affinity to recombinant human ERbeta LBD (259 to 498 residues) C334S/C369S/C481S triple mutant expressed in Escherichia coli BL21(DE3) using FAM-labelled compound after 1 hr by fluorescence polarization method
[11] = Half life in rabbit serum at 100 uM by RP-HPLC method; assay type: ADME, cell-free, Oryctolagus cuniculus

Estrogen receptor beta (Homo sapiens, UniProt Q92731), sequence (Q92731 whole entry, the tested form may be a part): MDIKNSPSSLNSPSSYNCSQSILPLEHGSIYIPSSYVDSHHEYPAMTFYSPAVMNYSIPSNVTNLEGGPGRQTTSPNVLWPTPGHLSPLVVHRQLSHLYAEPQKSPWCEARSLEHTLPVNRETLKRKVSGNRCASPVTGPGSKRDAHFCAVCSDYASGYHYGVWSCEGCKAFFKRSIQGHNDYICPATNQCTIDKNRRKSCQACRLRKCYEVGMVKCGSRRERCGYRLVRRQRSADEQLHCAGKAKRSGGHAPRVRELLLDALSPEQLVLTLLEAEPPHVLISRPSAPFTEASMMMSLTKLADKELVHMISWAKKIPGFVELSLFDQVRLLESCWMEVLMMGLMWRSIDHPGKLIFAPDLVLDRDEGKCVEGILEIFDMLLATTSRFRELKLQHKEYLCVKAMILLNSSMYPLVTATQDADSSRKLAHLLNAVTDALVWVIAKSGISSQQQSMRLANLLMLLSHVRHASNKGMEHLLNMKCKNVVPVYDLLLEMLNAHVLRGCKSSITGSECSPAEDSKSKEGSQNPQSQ
T3 sequence (Q92731 whole entry C334S/C369S/C481S, the tested form may be a part): as the sequence (Q92731 whole entry, the tested form may be a part) above, with C334S, C369S, C481S counted along it
Estrogen receptor beta (Homo sapiens), Q92731 [C334S,C369S,C481S], sequence (Q92731 whole entry C334S/C369S/C481S, the tested form may be a part): as the sequence (Q92731 whole entry, the tested form may be a part) above, with C334S, C369S, C481S counted along it

Q: Which Kdiss [1] does the source give for CC[C@H](C)[C@H](NC(=O)[C@H](CCCCN)NC(=O)[C@H](Cc1cnc[nH]1)NC(C)=O)C(=O)N[C@@H](CC(C)C)C(=O)N[C@@H](Cc1cnc[nH]1)C(=O)N[C@@H](CCCNC(=N)N)C(=O)N[C@@H](CC(C)C)C(=O)N[C@@H](CC(C)C)C(=O)N[C@@H](CCC(N)=O)C(=O)N[C@@H](CC(=O)O)C(=O)N[C@@H](CO)C(N)=O (Ac-HKILHRLLQDS-NH2) here?
A: Its Kdiss is 0.347 s⁻¹.

Q: What about the pKd [2] of the same molecule?
A: The pKd was 5.60.

Q: What about the Kdiss [3] of the same molecule?
A: The Kdiss was 0.376 s⁻¹.

Q: And the pKd [4]?
A: Its pKd is 5.30.

Q: What about the pKd [5] of the same molecule?
A: Its pKd is 5.59.

Q: With CC(=O)N[C@@H](CCCNC(=N)N)C(=O)N[C@@H](CCCNC(=N)N)C(=O)N[C@@H](CCCNC(=N)N)C(=O)N[C@@H](CCCNC(=N)N)C(=O)N[C@@H](CCCCN)C(=O)N[C@@]1(C)CCC/C=C\CCC[C@@](C)(C(=O)N[C@@H](CC(C)C)C(=O)N[C@@H](CCC(N)=O)C(=O)N[C@@H](CC(=O)O)C(=O)N[C@@H](CO)C(N)=O)NC(=O)[C@H](CCCNC(=N)N)NC(=O)[C@H](Cc2cnc[nH]2)NC(=O)[C@H](CC(C)C)NC1=O (Ac-RRRRK[S5]LHR[S5]LQDS-NH2; staple (Z) 6-10) as the molecule, how does the pKd [5] read?
A: The pKd was 7.72.

Q: With CC[C@H](C)[C@H](NC(=O)[C@H](CCCCN)NC(=O)[C@H](Cc1cnc[nH]1)NC(=O)[C@H](CCCNC(=N)N)NC(=O)[C@H](CCC(=O)O)NC(=O)[C@@H](NC(=O)[C@H](CC(C)C)NC(=O)[C@@H](N)CS)[C@@H](C)O)C(=O)N[C@@H](CC(C)C)C(=O)N[C@@H](Cc1cnc[nH]1)C(=O)N[C@@H](CCCNC(=N)N)C(=O)N[C@@H](CC(C)C)C(=O)N[C@@H](CC(C)C)C(=O)N[C@@H](CCC(N)=O)C(=O)N[C@@H](CCC(=O)O)C(N)=O (H-CLTERHKILHRLLQE-NH2) as the molecule, how does the pKd [6] read?
A: Its pKd is 6.05.

Q: With CSCC[C@H](NC(=O)[C@H](CC(C)C)NC(=O)[C@H](CC(C)C)NC(=O)[C@@H]1CCCN1C(=O)[C@@H](N)Cc1cnc[nH]1)C(=O)N[C@@H](CCCNC(=N)N)C(=O)N[C@@H](CC(C)C)C(=O)N[C@@H](CC(C)C)C(=O)N[C@@H](Cc1cnc[nH]1)C(=O)N[C@@H](Cc1cnc[nH]1)C(=O)N1CCC[C@H]1C(=O)N[C@@H](CO)C(N)=O (H-HPLLMRLLHHPS-NH2) as the molecule, how does the pKi [7] read?
A: Its pKi is 5.81.

Q: And the pKi [8]?
A: The pKi was 5.44.

Q: What does the source list for CSCC[C@H](NC(=O)[C@H](CC(C)C)NC(=O)[C@H](CC(C)C)NC(=O)[C@@H]1CCCN1C(=O)[C@@H](N)Cc1cnc[nH]1)C(=O)N[C@@H](CCCNC(=N)N)C(=O)N[C@@H](CC(C)C)C(=O)N[C@@H](CC(C)C)C(=O)N[C@@H](CC(C)C)C(=O)N[C@@H](CO)C(=O)N1CCC[C@H]1C(N)=O (H-HPLLMRLLLSP-NH2)?
A: pKi [7]: 6.73; pKi [8]: 7.60

Q: With CC[C@H](C)[C@@H]1NC(=O)[C@@H](NC(=O)[C@H](CCCNC(=N)N)NC(=O)[C@H](CCCCN)NC(=O)[C@@H](N)Cc2c[nH]c3ccccc23)CS/C=C/CCC[C@@H](C(=O)N[C@@H](CC(C)C)C(=O)N[C@@H](CC(C)C)C(=O)N[C@@H](CCC(N)=O)C(=O)N[C@@H](CCC(=O)O)C(N)=O)NC(=O)[C@H](CCCNC(=N)N)NC(=O)[C@H](CC(C)C)NC1=O (H-WKRCILR[X1]LLQE-NH2; thioether 4-8) as the molecule, how does the pKd [9] read?
A: Its pKd is 7.00.

Q: What about the pKd [10] of the same molecule?
A: Its pKd is 6.75.

Q: And the half-life at 100 µM [11]?
A: The half-life at 100 µM was 18.2 h.
